Assay results from patent publication US12428406B2 (PMV Pharmaceuticals, Inc., priority 2019, dated 2025).

target: T1, p53 Y220C (Homo sapiens, UniProt P04637, Y220C); experiment: In vitro DNA binding activity assay (HTRF / TR-FRET): stabilization of p53 Y220C and increase of its DNA binding activity; format: biochemical; details: recombinant His-tagged p53 Y220C DNA binding domain (aa 94-312), biotin-labeled consensus DNA, incubated at 27° C. or 29° C. for 60 min
T1 construct: The recombinant protein was a truncation mutant containing only amino acids 94-312 of p53; made in house; host or cells: E. coli
How it was run: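 Compounds from 4.5 mM DMSO stocks, 3-fold serial dilutions; room-temperature incubations of 15 and 20 min. SC150 = concentration raising DNA binding by 50% over no-compound control.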

T1 sequence (P04637 94-312, change not shown): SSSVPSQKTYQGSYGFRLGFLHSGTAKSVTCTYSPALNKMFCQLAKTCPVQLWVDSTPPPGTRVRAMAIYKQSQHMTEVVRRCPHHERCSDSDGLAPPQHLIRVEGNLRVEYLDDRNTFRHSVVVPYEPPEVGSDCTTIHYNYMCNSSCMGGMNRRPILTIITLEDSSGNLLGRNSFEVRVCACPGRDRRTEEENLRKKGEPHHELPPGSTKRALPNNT

For COc1cc(S(=O)(=O)NC2CCOCC2)ccc1NCC#Cc1cc2c(NC3CCN(CC(O)CO)CC3)cccc2n1CC(F)(F)F (stereo not drawn) [Compound 552A, 4-{[3-(4-{[1-(2,3-dihydroxypropyl)piperidin-4-yl]amino}-1-(2,2,2-trifluoroethyl)-1H-indol-2-yl)prop-2-yn-1-yl]amino}-3-methoxy-N-(oxan-4-yl) benzene-1-sulfonamide], which “SC150 (concentration of the compound required to increase the DNA binding activity by 50%)” value is on record?
The value was “+ (+ = 0 μM ≤ SC150 < 0.05 μM)”.

Which “SC150 (concentration of the compound required to increase the DNA binding activity by 50%)” value does the source give for COc1cc(S(N)(=O)=O)ccc1NCC#Cc1cc2c(N[C@@H]3CCN(C[C@H](COC(C)=O)OC(C)=O)C[C@@H]3F)cccc2n1CC(F)(F)F (racemic) [Compound 799A, (2R)-1-(acetyloxy)-3-[(3RS,4SR)-3-fluoro-4-[(2-{3-[(2-methoxy-4-sulfamoylphenyl)amino]prop-1-yn-1-yl}-1-(2,2,2-trifluoroethyl)-1H-indol-4-yl)amino]piperidin-1-yl]propan-2-yl acetate] here?
Its value is “+ (+ = 0 μM ≤ SC150 < 0.05 μM)”.

How did the “SC150 (concentration of the compound required to increase the DNA binding activity by 50%)” value turn out when COCC(O)CN1CC[C@H](Nc2cccc3c2cc(C#CCNc2ccc(S(C)(=O)=O)cc2OC)n3CC(F)(F)F)[C@H](C)C1 (mixture of isomers) [Compound 701A, rac-1-[(3R,4R)-4-[(2-{3-[(4-methanesulfonyl-2-methoxyphenyl)amino]prop-1-yn-1-yl}-1-(2,2,2-trifluoroethyl)-1H-indol-4-yl)amino]-3-methylpiperidin-1-yl]-3-methoxypropan-2-ol] was run?
Its value is “+ (+ = 0 μM ≤ SC150 < 0.05 μM)”.

For COc1cc(S(=O)(=O)N(C)CCO)ccc1NCC#Cc1cc2c(NC3CCN(C)CC3)cccc2n1CC(F)(F)F [Compound 472A, N-(2-hydroxyethyl)-3-methoxy-N-methyl-4-[(3-{4-[(1-methylpiperidin-4-yl)amino]-1-(2,2,2-trifluoroethyl)-1H-indol-2-yl}prop-2-yn-1-yl)amino]benzene-1-sulfonamide], which “SC150 (concentration of the compound required to increase the DNA binding activity by 50%)” value is on record?
The value was “+ (+ = 0 μM ≤ SC150 < 0.05 μM)”.

For CNS(=O)(=O)c1ccc(NCC#Cc2cc3c(N[C@H]4CC[C@H](N5CC6(COC6)C5)CC4)cccc3n2CC(F)(F)F)c(OC)c1 [Compound 263A, 4-((3-(4-(((1R,4R)-4-(2-oxa-6-azaspiro[3.3]heptan-6-yl)cyclo-hexyl)amino)-1-(2,2,2-trifluoroethyl)-1H-indol-2-yl)prop-2-yn-1-yl)amino)-3-methoxy-N-methylbenzene-sulfonamide], which “SC150 (concentration of the compound required to increase the DNA binding activity by 50%)” value is on record?
Its value is “+ (+ = 0 μM ≤ SC150 < 0.05 μM)”.

How did the “SC150 (concentration of the compound required to increase the DNA binding activity by 50%)” value turn out when COc1cc(C(=O)N[C@H](C)CO)ccc1NCC#Cc1cc2c(N[C@@H]3CCN(C)C[C@@H]3F)cccc2n1CC(F)(F)F [Compound 950A, 4-{[3-(4-{[(3S,4R)-3-fluoro-1-methylpiperidin-4-yl]amino}-1-(2,2,2-trifluoroethyl)-1H-indol-2-yl)prop-2-yn-1-yl]amino}-N-[(2R)-1-hydroxypropan-2-yl]-3-methoxybenzamide] was run?
The value was “+ (+ = 0 μM ≤ SC150 < 0.05 μM)”.

Which “SC150 (concentration of the compound required to increase the DNA binding activity by 50%)” value does the source give for COc1cc(S(C)(=O)=O)ccc1NCC#Cc1cc2c(N[C@H]3CCN(CCO)C[C@H]3F)cccc2n1CC(F)(F)F [Compound 854A, 2-[(3R,4S)-3-fluoro-4-[(2-{3-[(4-methanesulfonyl-2-methoxyphenyl)amino]prop-1-yn-1-yl}-1-(2,2,2-trifluoroethyl)-1H-indol-4-yl)amino]piperidin-1-yl]ethan-1-ol] here?
Its value is “+ (+ = 0 μM ≤ SC150 < 0.05 μM)”.

For COc1cc(C(N)=O)ccc1NCC#Cc1cc2c(N[C@H]3C[C@@H](C)O[C@@H](C)C3)cccc2n1CC(F)(F)F [Compound 1029A, 3-methoxy-4-{[3-(4-{[(2R,4R,6S)-2,6-dimethyloxan-4-yl]amino}-1-(2,2,2-trifluoroethyl)-1H-indol-2-yl)prop-2-yn-1-yl]amino}benzamide], which “SC150 (concentration of the compound required to increase the DNA binding activity by 50%)” value is on record?
Its value is “+++ (+++ = 0.1 μM ≤ SC150 < 0.2 μM)”.

With CN1CCC(Nc2cccc3c2cc(C#CCNc2ccc(S(C)(=O)=O)cc2OCC#N)n3CC(F)(F)F)CC1 [Compound 489A, 2-{5-methanesulfonyl-2-[(3-{4-[(1-methylpiperidin-4-yl)amino]-1-(2,2,2-trifluoroethyl)-1H-indol-2-yl}prop-2-yn-1-yl)amino]phenoxy} acetonitrile] as the molecule, how does the “SC150 (concentration of the compound required to increase the DNA binding activity by 50%)” value read?
Its value is “+ (+ = 0 μM ≤ SC150 < 0.05 μM)”.

Which “SC150 (concentration of the compound required to increase the DNA binding activity by 50%)” value does the source give for COCCn1cc(-c2ccc(NCC#Cc3cc4c(NC5CCN(C)CC5)cccc4n3CC(F)(F)F)c(OC)c2)cn1 [Compound 510A, 2-[3-({2-methoxy-4-[1-(2-methoxyethyl)-1H-pyrazol-4-yl]phenyl}amino)prop-1-yn-1-yl]-N-(1-methylpiperidin-4-yl)-1-(2,2,2-trifluoroethyl)-1H-indol-4-amine] here?
The value was “+ (+ = 0 μM ≤ SC150 < 0.05 μM)”.

COc1cc(S(=O)(=O)Nc2ccon2)ccc1NCC#Cc1cc2c(N[C@H]3CC[C@@H](N(C)C)CC3)cccc2n1CC(F)(F)F [Compound 50A, 3-methoxy-N-(1,2-oxazol-3-yl)-4-{[3-(4-{[(1S,4S)-4-(dimethylamino)cyclohexyl]amino}-1-(2,2,2-trifluoro-ethyl)-1H-indol-2-yl)prop-2-yn-1-yl]amino}benzene-1-sulfonamide] was tested. Which “SC150 (concentration of the compound required to increase the DNA binding activity by 50%)” value did it give?
Its value is “+ (+ = 0 μM ≤ SC150 < 0.05 μM)”.

For CS(=O)(=O)c1ccc(NCC#Cc2cc3c(N[C@H]4CC[C@H](N5CCC6(CC5)COC6)CC4)cccc3n2CC(F)(F)F)c(OCC#N)c1 [Compound 389A, 2-(5-methanesulfonyl-2-{[3-(4-{[(1R,4R)-4-{2-oxa-7-azaspiro[3.5]nonan-7-yl}cyclohexyl]amino}-1-(2,2,2-trifluoroethyl)-1H-indol-2-yl)prop-2-yn-1-yl]amino}phenoxy)acetonitrile], which “SC150 (concentration of the compound required to increase the DNA binding activity by 50%)” value is on record?
Its value is “+ (+ = 0 μM ≤ SC150 < 0.05 μM)”.

With COc1cc(S(=O)(=O)N(C)C)ccc1NCC#Cc1cc2c(NC3CCOCC3)cccc2n1CC(F)(F)F [Compound 999A, 3-methoxy-N,N-dimethyl-4-[(3-{4-[(oxan-4-yl)amino]-1-(2,2,2-trifluoroethyl)-1H-indol-2-yl}prop-2-yn-1-yl)amino]benzene-1-sulfonamide] as the molecule, how does the “SC150 (concentration of the compound required to increase the DNA binding activity by 50%)” value read?
The value was “+ (+ = 0 μM ≤ SC150 < 0.05 μM)”.

How did the “SC150 (concentration of the compound required to increase the DNA binding activity by 50%)” value turn out when CN(C)[C@H]1CC[C@@H](Nc2cccc3c2cc(C#CCNc2ccc(S(C)(=O)=O)cc2OCCO)n3CC(F)(F)F)CC1 [Compound 88A, 2-(5-methanesulfonyl-2-{[3-(4-{[(1S,4S)-4-(dimethylamino)cyclohexyl]amino}-1-(2,2,2-trifluoro-ethyl)-1H-indol-2-yl)prop-2-yn-1-yl]amino}phenoxy)ethan-1-ol] was run?
Its value is “+ (+ = 0 μM ≤ SC150 < 0.05 μM)”.

How did the “SC150 (concentration of the compound required to increase the DNA binding activity by 50%)” value turn out when CCS(=O)(=O)c1ccc(NCC#Cc2cc3c(N[C@H]4CC[C@H](N5CC6(CCOCC6)C5)CC4)cccc3n2CC(F)(F)F)c(OC)c1 [Compound 314A, 2-(3-{[4-(ethanesulfonyl)-2-methoxyphenyl]amino}prop-1-yn-1-yl)-N-[(1R,4R)-4-{7-oxa-2-azaspiro[3.5]nonan-2-yl}cyclohexyl]-1-(2,2,2-trifluoroethyl)-1H-indol-4-amine] was run?
Its value is “+ (+ = 0 μM ≤ SC150 < 0.05 μM)”.
